Results from ChEMBL document CHEMBL5120812, “Cytotoxic Nitrobenzoyl Sesquiterpenoids from an Antarctica Sponge-Derived Aspergillus insulicola” (J Nat Prod, 2022).
pIC50: −log10 of the molar value.

What was measured:
Type in all cases: functional, cell-based
PANC-1 = assay: Cytotoxicity against human PANC-1 cells assessed as inhibition of cell growth incubated for 72 hrs by SRB assay; details: PANC-1, 72 h
ASPC1 = assay: Cytotoxicity against human ASPC1 cells assessed as inhibition of cell growth incubated for 72 hrs by SRB assay; details: ASPC1, 72 h
MDA-MB-231 = assay: Cytotoxicity against human MDA-MB-231 cells assessed as inhibition of cell growth incubated for 72 hrs by SRB assay; details: MDA-MB-231, 72 h

Compound | pIC50 (PANC-1) | pIC50 (ASPC1) | pIC50 (MDA-MB-231)
C[C@]1(COC(=O)CCCCCCC/C=C/C(=O)O)CCC[C@]2(C)[C@H]3COC(=O)C3=C[C@@H](OC(=O)c3ccc([N+](=O)[O-])cc3)[C@@H]12 | < 4.52 | < 4.52 | < 4.52
C=C(CCCCCCCC(=O)OC[C@@]1(C)CCC[C@]2(C)[C@H]3COC(=O)C3=C[C@@H](OC(=O)c3ccc([N+](=O)[O-])cc3)[C@@H]12)C(=O)O | < 4.52 | < 4.52 | < 4.52
C=C(CCCCCCCC(=O)OC[C@@]1(C)CCC[C@@]2(C)[C@H]1[C@H](OC(=O)c1ccc([N+](=O)[O-])cc1)C=C1C(=O)OC[C@@]12O)C(=O)O | 5.34 | 5.57 | 4.93
